Source: the supplement of paper PMC10307832

Legend:
Assay in all cases: relative viability (nuclei count vs DMSO), 5 days (fraction); higher = more cells survive
Linsitinib + Lapatinib = compound: C[C@]1(O)C[C@@H](c2nc(-c3ccc4ccc(-c5ccccc5)nc4c3)c3c(N)nccn32)C1 [Linsitinib] + CS(=O)(=O)CCNCc1ccc(-c2ccc3ncnc(Nc4ccc(OCc5cccc(F)c5)c(Cl)c4)c3c2)o1 [Lapatinib] (partner 2 µM)
Procedure, shortened: (§1)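 Lung cancer cell lines were seeded in 1536-well plates and dosed by pin tool the next day, with either a single drug or a fixed anchor-drug dose combined with five library-drug doses (not always all listed) spaced in √10 steps. Five days later, one step fixed the cells and stained their nuclei (final 0.05% Triton X-100, 1% formaldehyde, 1 ug/ml Hoechst), and nuclei were counted on 4× images. Relative viability is the nuclei count in treated wells divided by the count in vehicle wells, and each value is the median of duplicate plates.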

Ispinesib + Alpelisib = compound: Cc1ccc(C(=O)N(CCCN)[C@@H](c2nc3cc(Cl)ccc3c(=O)n2Cc2ccccc2)C(C)C)cc1 [Ispinesib] + Cc1nc(NC(=O)N2CCC[C@H]2C(N)=O)sc1-c1ccnc(C(C)(C)C(F)(F)F)c1 [Alpelisib] (partner 2 µM)
Procedure, shortened: as §1

Ispinesib + Foretinib = compound: Cc1ccc(C(=O)N(CCCN)[C@@H](c2nc3cc(Cl)ccc3c(=O)n2Cc2ccccc2)C(C)C)cc1 [Ispinesib] + COc1cc2c(Oc3ccc(NC(=O)C4(C(=O)Nc5ccc(F)cc5)CC4)cc3F)ccnc2cc1OCCCN1CCOCC1 [Foretinib] (partner 0.25 µM)
Procedure, shortened: as §1

Ispinesib + Palbociclib = compound: Cc1ccc(C(=O)N(CCCN)[C@@H](c2nc3cc(Cl)ccc3c(=O)n2Cc2ccccc2)C(C)C)cc1 [Ispinesib] + CC(=O)c1c(C)c2cnc(Nc3ccc(N4CCNCC4)cn3)nc2n(C2CCCC2)c1=O [Palbociclib] (partner 0.5 µM)
Procedure, shortened: as §1

## UMC-11
Linsitinib + Lapatinib; first compound 0.01 µM
  relative viability: 0.889
Linsitinib + Lapatinib; first compound 0.03162 µM
  relative viability: 0.871
Linsitinib + Lapatinib; first compound 0.1 µM
  relative viability: 1.08
Linsitinib + Lapatinib; first compound 0.3162 µM
  relative viability: 0.303
Linsitinib + Lapatinib; first compound 1 µM
  relative viability: 0.843
Ispinesib + Alpelisib; first compound 0.001 µM
  relative viability: 0.944
Ispinesib + Alpelisib; first compound 0.003162 µM
  relative viability: 1.09
Ispinesib + Alpelisib; first compound 0.01 µM
  relative viability: 0.99
Ispinesib + Alpelisib; first compound 0.03162 µM
  relative viability: 0.351
Ispinesib + Alpelisib; first compound 0.1 µM
  relative viability: 0.282
Ispinesib + Foretinib; first compound 0.001 µM
  relative viability: 1.03
Ispinesib + Foretinib; first compound 0.003162 µM
  relative viability: 0.995
Ispinesib + Foretinib; first compound 0.01 µM
  relative viability: 0.889
Ispinesib + Foretinib; first compound 0.03162 µM
  relative viability: 0.322
Ispinesib + Foretinib; first compound 0.1 µM
  relative viability: 0.233
Ispinesib + Palbociclib; first compound 0.001 µM
  relative viability: 0.336
Ispinesib + Palbociclib; first compound 0.003162 µM
  relative viability: 0.311
Ispinesib + Palbociclib; first compound 0.01 µM
  relative viability: 0.309
Ispinesib + Palbociclib; first compound 0.03162 µM
  relative viability: 0.217
Ispinesib + Palbociclib; first compound 0.1 µM
  relative viability: 0.237
